Laboratory results as given in the supplement of paper PMC3974653.
Counter-ions that a name gives are not always drawn.

System: MTT (mouse pheochromocytoma)
Experiment: IC50 of cell viability (ATP content)
Details: (24 or 48 h)
Method in brief: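 MTT mouse pheochromocytoma cells (5 µl of 200,000 cells/ml per well, white 1536-well plates, DMEM with 5% FBS and 1% horse serum) were cultured overnight at 37°C, 5% CO2. They then received 23 nl library compound in DMSO by pintool at 8 concentrations (final 0.5 nM to 46 µM) for 24 or 48 hrs. CellTiter-Glo ATP luminescence was read after 15 minutes. Signals were normalised to positive-control (100% inhibition) and DMSO (0%) wells, and IC50 came from a four-parameter logistic fit.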

| SMILES | IC50 of cell viability [µM] |
| --- | --- |
| Nc1ccc([S+](=O)([O-])Nc2ncccn2)cc1 [Sulfadiazine] | > 46 |
| CCCCNC(C)(C)[PH](=O)O [Butafosfan] | > 46 |
| CCC(=O)OCC(=O)C1(OC(=O)CC)C(C)CC2C3CCC4=CC(=O)C=CC4(C)C3(F)C(O)CC21C (stereo not drawn) [Betamethasone dipropionate] | > 46 |
| COP(=S)(OC)Oc1ccc(Sc2ccc(OP(=S)(OC)OC)cc2)cc1 [TEMEFOSUM] | > 46 |
| COc1ccc(CCN(C)CCCN2CCc3cc(OC)c(OC)cc3CC2=O)cc1OC [ZATEBRADINUM] | > 46 |
| CC(C)=CCOc1ccc(/C=C/C(=O)c2ccc(OCC=C(C)C)cc2OCC(=O)O)cc1 [Sofalcone] | > 46 |
| CN1c2c(O)nc(N)nc2NCC1CNc1ccc(C(=O)NC(CCC(=O)[O-])C(=O)[O-])cc1 (stereo not drawn) [5-METHYLTETRAHYDROFOLATE SODIUM SALT] | > 46 |
| CCc1cc([S+](=O)([O-])[O][Na])c2cc(C(C)C)cccc1-2 [EGUALEN SODIUM] | > 46 |
| NC(N)=Nc1nc(CSCC/C(N)=N/[S+](N)(=O)[O-])cs1 [FAMOTIDINE] | > 46 |
| N[S+](=O)([O-])c1cc(C(=O)O)cc(N2CCCC2)c1Oc1ccccc1 [Piretanide] | > 46 |
| CC(C)(C)C(O)C=Cc1ccc2c(c1)OCO2 (stereo not drawn) [Stiripentol] | > 46 |
| Nc1ccc(C(=O)Nc2ccccc2N)cc1 [Dinaline] | > 46 |
| Cc1cccc(C)c1NC(=O)[C@H](C)N [Tocainide hydrochloride] | > 46 |
| C/C=C/c1ccc(O)c(OC)c1 [Isoeugenol] | > 46 |
| Cc1ncc(CSSCc2cnc(C)c(O)c2CO)c(CO)c1O [PYRITHIOXINE] | > 46 |
| C#CCN[C@@H]1CCc2ccccc21 [RASAGILINE MESYLATE] | > 46 |
| CC(=O)O[C@H](C)OC(=O)[C@@H](C)c1ccc(-c2ccccc2)c(F)c1 [Flurbiprofen Axetil] | > 46 |
| O=C(Nc1ccc(Cl)cc1)Nc1ccc(Cl)c(C(F)(F)F)c1 [Cloflucarban] | > 46 |
| COc1ccnc(C[S+]([O-])c2nc3cc(OC(F)F)ccc3[nH]2)c1OC (stereo not drawn) [PANTOPRAZOLE] | > 46 |
| CC(C)(C)CC(C)(C)c1ccc(O)c(Cc2ccc(Cl)cc2Cl)c1 [CLOFOCTOL] | > 46 |
| CNC(=N)NCCC[C@H](N)C(=O)O [NG-Monomethyl-L-arginine acetate] | > 46 |
| CC(C)Oc1cccc(NC(=O)c2ccccc2C(F)(F)F)c1 [Flutolanil] | > 46 |
| CCC(=O)O[C@]1([C@@H](C)C[C@H]2[C@H]3C[C@@H](F)\C4=C\C(=O)\C=C/[C@@]4(C)[C@@]3(F)[C@@H](O)C[C@]12C)C(=O)SCF [Fluticasone propionate] | > 46 |
| N[C@@H]1CN(CC12CC2)C3=C(F)C=C4C(=O)\C(=C/N([C@@H]5C[C@@H]5F)C4=C3Cl)C(O)=O [Sitafloxacin] | > 46 |

| SMILES | IC50 of cell viability [µM] |
| --- | --- |
| COC(=O)CCC(=O)CN [METHYL AMINOLEVULINATE HYDROCHLORIDE] | > 46 |
| COc1ccccc1OC[C@H](O)CO [Guaifenesin] | > 46 |
| Cc1ccccc1C(=O)N1CC/C(=N/OS(=O)(=O)[O-])c2ccc(Cl)cc21 [ALILUSEM POTASSIUM] | > 46 |
| OC(=O)\C1=C\N(C2CC2)C3=CC(=C(F)C=C3C1=O)N4CCNCC4 [Ciprofloxacin hydrochloride] | > 46 |
| CC(=O)OCC(=O)[C@@H]1CC[C@@H]2[C@H]3CC[C@H]4C[C@@H](O)CC[C@]4(C)[C@@H]3C(=O)C[C@]21C [Alfadolone acetate] | > 46 |
| NC(CO)(CO)CO [TROMETHAMINE] | > 46 |
| CN(C)CC[C@@](O)(c1ccccc1)c1ccccc1Cl [CHLOPHEDIANOL HYDROCHLORIDE] | > 46 |
| CCCCCCCC(=O)CC[C@H]1[C@@H](C/C=C/CCCC(=O)OC(C)C)[C@@H](O)C[C@H]1O [Unoprostone Isopropyl Ester] | > 46 |
| O=C(O)c1cc2ccccc2c(Cc2c(O)c(C(=O)O)cc3ccccc23)c1O [Pamoic acid] | > 46 |
| CCCCCCCCCCCCCCCCCC(=O)OC[C@@H](O)[C@H]1OC[C@H](O)[C@H]1O [Sorbitan monostearate] | > 46 |
| C[C@@H](O)[C@H]1C(=O)N2C(C(=O)O)=C(S[C@@H]3CN[C@H](CN[S+](N)(=O)[O-])C3)[C@H](C)[C@H]12 [DORIPENEM HYDRATE] | > 46 |
| CCCCCCCCCCCCCCCCN [Hetaflur] | > 46 |
| CN(C)CCN(Cc1ccc(Cl)cc1)c1ccccn1 [Chloropyramine hydrochloride] | > 46 |
| CN(C)CCC[C@@]1(c2ccc(F)cc2)OCc2cc(C#N)ccc21.O=C(O)C(=O)O [ESCITALOPRAM OXALATE] | > 46 |
| Nc1nc(N)c(-c2ccccc2)s1 [AMIPHENAZOLUM] | > 46 |
| COc1ccc(OC)c(C[C@H](C)N)c1 [(+)-2,5-Dimethoxyamphetamine] | > 46 |
| CC(=O)O.CNC(=N)NCCC[C@H](N)C(=O)O [NG-Monomethyl-L-arginine acetate] | > 46 |
| CC(C)N(CC[C@@](C(N)=O)(c1ccccc1)c1ccccn1)C(C)C [Disopyramide] | > 46 |
| C=Cc1ccc(C=C)cc1.C=Cc1ccccc1.CC(C)N(Cc1ccccc1)C(C)C [Diisopropylaminomethyl-polystyrene] | > 46 |
| C\C(C)=C\[C@@H]1[C@@H](C(=O)OCN2C(=O)CN(CC#C)C2=O)C1(C)C [Imiprothrin] | > 46 |
| CC(=O)[C@H]1CC[C@H]2[C@@H]3CC[C@H]4C[C@H](O)CC[C@]4(C)[C@H]3CC[C@]12C [5-alpha-PREGNAN-3-alpha-OL-20-ONE] | > 46 |
| CCN1CC(CCN2CCOCC2)C(c2ccccc2)(c2ccccc2)C1=O (stereo not drawn) [DOXAPRAM HYDROCHLORIDE] | > 46 |
| O=C1c2cccc(O)c2C(=O)c2c(O)cccc21 [Danthron] | > 46 |
| CN(N=O)C(=O)N[C@H]1[C@H](O)[C@H](O)[C@H](CO)O[C@@H]1O [Streptozotocin] | > 46 |
